Data published in patent publication EP0399731B2, “Azaindenes” (AstraZeneca AB, priority 1989, dated 1990).

Experiments:
[1] = system: angiotensin II-induced pressor responses; assay: Test C: antagonism of angiotensin II-induced pressor responses in terminally-anaesthetised or conscious rats; type: in vivo; details: Rattus norvegicus
Method: This in vivo test involves using terminally-anaesthetised or conscious rats in which an arterial catheter has been implanted under anaesthesia for the measurement of changes in blood pressure. The All antagonistic effects of the test compound following oral or parenteral administration, are assessed against angiotensin II-induced pressor responses. To ensure that the effect is specific the effect of the test compound on vasopressin-induced pressor responses may also be determined in the same preparation.

[2] = biological target: T1, All (angiotensin II) receptors (Cavia porcellus, UniProt Q9WV26); assay: Test A: displacement of radiolabelled All binding from guinea pig adrenal gland membrane fraction; details: guinea pig adrenal gland membranes; read-out: IC50 (concentration for 50% displacement of radiolabelled All binding)
T1 construct: from tissue; host or cells: guinea pig adrenal gland, cell surface membrane fraction
T1 sequence (Q9WV26 1-359): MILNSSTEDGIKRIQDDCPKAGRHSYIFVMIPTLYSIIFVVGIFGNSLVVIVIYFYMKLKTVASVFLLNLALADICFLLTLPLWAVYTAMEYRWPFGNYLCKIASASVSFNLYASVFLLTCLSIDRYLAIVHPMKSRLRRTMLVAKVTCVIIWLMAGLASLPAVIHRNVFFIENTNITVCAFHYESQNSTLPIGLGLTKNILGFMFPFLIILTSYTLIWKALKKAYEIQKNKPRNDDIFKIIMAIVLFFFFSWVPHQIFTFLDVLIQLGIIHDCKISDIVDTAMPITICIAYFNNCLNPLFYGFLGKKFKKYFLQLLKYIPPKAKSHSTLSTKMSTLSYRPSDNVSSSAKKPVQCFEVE
Method: This in vitro procedure involves the incubation of the test compound initially at a concentration of 100 micromolar (or less) in a buffered mixture containing fixed concentrations of radiolabelled All and a cell surface membrane fraction prepared from a suitable angiotensin target tissue. In this test, the source of cell surface membranes is the guinea pig adrenal gland which is well known to respond to All. Interaction of the radiolabelled All with its receptors (assessed as radiolabel bound to the particulate membrane fraction following removal of unbound radiolabel by a rapid filtration procedure such as is standard in such studies) is antagonized by compounds which also bind to the membrane receptor sites and the degree of antagonism (observed in the test as displacement of membrane-bound radioactivity) is determined readily by comparing the receptor-bound radioactivity in the presence of the test compound at the specified test concentration with a control value determined in the absence of the test compound. Using this procedure compounds showing at least 50% displacement of radiolabelled All binding at a concentration of 10^-4 M are retested at lower concentrations to determine their potency. […]

[3] = system: All-induced contractions of isolated rabbit aorta; assay: Test B: antagonism of All-induced contractions of isolated rabbit aorta; type: cell-based; details: 37°C
Method: This in vitro test involves the measurement of the antagonistic effects of the test compound against All-induced contractions of isolated rabbit aorta, maintained in a physiological salt solution at 37°C. In order to ensure that the effect of the compound is specific to antagonism of All, the effect of the test compound on noradrenaline-induced contractions may also be determined in the same preparation.

Q: For `CCCCc1nc2cccnc2n1Cc1ccc(-c2ccccc2-c2nnn[nH]2)cc1.Cl` [Example 3, 2-butyl-3-[(2'-(1H-tetrazol-5-yl)biphenyl-4-yl)methyl]-3H-imidazo[4,5-b]pyridine hydrochloride], which inhibition at 20 mg/kg ([1]; 1 h, after one hour at a dose of 20mg/kg (oral administration)) is on record?
A: The inhibition at 20 mg/kg was 54%.

Q: And the ED50 ([1]; parenteral administration)?
A: The ED50 was 1.07 mg/kg.

Q: What about the IC50 [2] of the same molecule?
A: The IC50 was 14.9 nM.

Q: What about the pA2 [3] of the same molecule?
A: Its pA2 is 9.2.
